Measured values: patent US9302999B2, “Substituted triazoles as herbicides” (E. I. DU PONT DE NEMOURS AND COMPANY, priority 2012, dated 2016)

Tests used:
Assay type in all cases: in vivo
[1] = tested on: barnyardgrass (Echinochloa crus-galli); assay: Test A pre-/postemergence: barnyardgrass
Summary of the method: (§1)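 Whole-plant greenhouse assay in loam/sand. Preemergence directed soil spray plus simultaneous postemergence spray (one- to two-leaf stage, 2–10 cm). Rated visually ~10 days later, 0 = no effect, 100 = complete control.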

[2] = tested on: crabgrass, large (large crabgrass, Digitaria sanguinalis); assay: Test A pre-/postemergence: crabgrass, large
Summary of the method: as §1

[3] = tested on: foxtail, giant (giant foxtail, Setaria faberii); assay: Test A pre-/postemergence: foxtail, giant
Summary of the method: as §1

[4] = tested on: morningglory (Ipomoea spp.); assay: Test A pre-/postemergence: morningglory
Summary of the method: as §1

[5] = tested on: pigweed (Amaranthus retroflexus); assay: Test A pre-/postemergence: pigweed
Summary of the method: as §1

[6] = tested on: velvetleaf (Abutilon theophrasti); assay: Test A pre-/postemergence: velvetleaf
Summary of the method: as §1

[7] = tested on: wheat (Triticum aestivum); assay: Test A pre-/postemergence: wheat
Summary of the method: as §1

corn (Zea mays) = assay: Test A pre-/postemergence: corn
Summary of the method: as §1

rice (Oryza sativa) = assay: Test C flooded paddy test: rice; details: scale 0 to 100 (0 no effect, 100 complete control)
From the text: (§2) Plant species in the flooded paddy test consisted of rice (Oryza sativa), sedge, umbrella (small-flower umbrella sedge, Cyperus difformis), ducksalad (Heteranthera limosa) and barnyardgrass (Echinochloa crus-galli) grown to the 2-leaf stage for testing. At time of treatment, test pots were flooded to 3 cm above the soil surface, treated by application of test compounds directly to the paddy water, and then maintained at that water depth for the duration of the test.
(§3) Treated plants and controls were maintained in a greenhouse for 13 to 15 days, after which time all species were compared to controls and visually evaluated. Plant response ratings, summarized in Table C, are based on a scale of 0 to 100 where 0 is no effect and 100 is complete control. A dash (-) response means no test result.

[8] = tested on: sedge, umbrella (small-flower umbrella sedge, Cyperus difformis); assay: Test C flooded paddy test: sedge, umbrella; details: scale 0 to 100 (0 no effect, 100 complete control)
Summary of the method: (§4)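 Plants at 2-leaf stage in pots flooded 3 cm above soil; compounds applied directly into the paddy water, depth maintained. Visual rating against controls after 13–15 days in greenhouse, scale 0 (no effect) to 100 (complete control).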

[9] = tested on: ducksalad (Heteranthera limosa); assay: Test C flooded paddy test: ducksalad; details: scale 0 to 100 (0 no effect, 100 complete control)
From the text: as §2, §3

[10] = tested on: barnyardgrass (Echinochloa crus-galli); assay: Test C flooded paddy test: barnyardgrass; details: scale 0 to 100 (0 no effect, 100 complete control)
Summary of the method: as §4

[11] = Postemergence, 1000 g ai/ha, visual rating on 0 to 100 scale (0 no effect, 100 complete control), approximately ten days
[12] = Preemergence, 1000 g ai/ha, 0 to 100 scale, 0 is no effect, 100 is complete control
[13] = Flood (flooded paddy test), 250 g ai/ha, visual rating after 13 to 15 days
[14] = Postemergence, 125 g ai/ha, 0 to 100 scale, 0 is no effect, 100 is complete control
[15] = Postemergence, 500 g ai/ha, visual rating on 0 to 100 scale (0 no effect, 100 complete control), approximately ten days
[16] = Preemergence, 125 g ai/ha, 0 to 100 scale (0 no effect, 100 complete control)
[17] = Preemergence, 500 g ai/ha, 0 to 100 scale, 0 is no effect, 100 is complete control
[18] = Flood (flooded paddy test), 62 g ai/ha, visual rating after 13 to 15 days
[19] = Flood (flooded paddy test), 125 g ai/ha, visual rating after 13 to 15 days

With `Cc1nn(-c2ccc(F)cc2)nc1Cn1ccc(C(F)(F)F)n1` [Compound 95] the “Barnyardgrass plant response rating” value [1, 11] was 60, the “Barnyardgrass plant response rating” value [1, 12] was 50 and the “Crabgrass, Large plant response rating” value [2, 11] was 80. For the same compound, the “Crabgrass, Large plant response rating” value [2, 12] was 100, the “Foxtail, Giant plant response rating” value [3, 11] was 60 and the “Foxtail, Giant plant response rating” value [3, 12] was 100. The “Morningglory plant response rating” value [4, 11] was 60, the “Morningglory plant response rating” value [4, 12] was 0 and the “Pigweed plant response rating” value [5, 11] was 100. The “Pigweed plant response rating” value [5, 12] was 90, the “Velvetleaf plant response rating” value [6, 11] was 70 and the “Velvetleaf plant response rating” value [6, 12] was 40. For the same compound, the “Wheat plant response rating” value [7, 11] was 0, the “Wheat plant response rating” value [7, 12] was 0 and the “Corn plant response rating” value (corn (Zea mays); [11]) was 30. The “Corn plant response rating” value (corn (Zea mays); [12]) was 10, the “Plant response rating, Rice” value (rice (Oryza sativa); [13]) was 0 and the “Plant response rating, Rice” value (rice (Oryza sativa); Flood, 62 g ai/ha) was 0. For the same compound, the “Plant response rating, Sedge, Umbrella” value [8, 13] was 0, the “Plant response rating, Sedge, Umbrella” value ([8]; Flood, 62 g ai/ha) was 0 and the “Plant response rating, Ducksalad” value [9, 13] was 0. For the same compound, the “Plant response rating, Ducksalad” value ([9]; Flood, 62 g ai/ha) was 0, the “Plant response rating, Barnyardgrass” value [10, 13] was 0 and the “Plant response rating, Barnyardgrass” value ([10]; Flood, 62 g ai/ha) was 0.
For `Cc1nn(-c2ccc(C(F)(F)F)cc2)nc1Cn1cc(C(F)(F)F)nc1Cl` [Compound 9], the “Barnyardgrass plant response rating” value [1, 14] was 50, the “Barnyardgrass plant response rating” value [1, 15] was 60 and the “Plant response rating, Barnyardgrass” value [1, 16] was 30. For the same compound, the “Plant response rating, Barnyardgrass” value [1, 17] was 70, the “Crabgrass, Large plant response rating” value [2, 14] was 60 and the “Crabgrass, Large plant response rating” value [2, 15] was 70. For the same compound, the “Plant response rating, Crabgrass, Large” value [2, 16] was 90, the “Plant response rating, Crabgrass, Large” value [2, 17] was 100 and the “Foxtail, Giant plant response rating” value [3, 14] was 50. For the same compound, the “Foxtail, Giant plant response rating” value [3, 15] was 70, the “Plant response rating, Foxtail, Giant” value [3, 16] was 80 and the “Plant response rating, Foxtail, Giant” value [3, 17] was 90. The “Morningglory plant response rating” value [4, 14] was 70, the “Morningglory plant response rating” value [4, 15] was 100 and the “Plant response rating, Morningglory” value [4, 16] was 50. The “Plant response rating, Morningglory” value [4, 17] was 60, the “Pigweed plant response rating” value [5, 14] was 90 and the “Pigweed plant response rating” value [5, 15] was 100. For the same compound, the “Plant response rating, Pigweed” value [5, 16] was 90, the “Plant response rating, Pigweed” value [5, 17] was 100 and the “Velvetleaf plant response rating” value [6, 14] was 60. For the same compound, the “Velvetleaf plant response rating” value [6, 15] was 80, the “Plant response rating, Velvetleaf” value [6, 16] was 30 and the “Plant response rating, Velvetleaf” value [6, 17] was 50. For the same compound, the “Wheat plant response rating” value [7, 14] was 0, the “Wheat plant response rating” value [7, 15] was 20 and the “Plant response rating, Wheat” value [7, 16] was 0. For the same compound, the “Plant response rating, Wheat” value [7, 17] was 0, the “Corn plant response rating” value (corn (Zea mays); [14]) was 20 and the “Corn plant response rating” value (corn (Zea mays); [15]) was 30. The “Plant response rating, Corn” value (corn (Zea mays); [16]) was 0, the “Plant response rating, Corn” value (corn (Zea mays); [17]) was 10 and the “Plant response rating, Rice” value (rice (Oryza sativa); [18]) was 0. The “Plant response rating, Rice” value (rice (Oryza sativa); [13]) was 0, the “Plant response rating, Sedge, Umbrella” value [8, 18] was 40 and the “Plant response rating, Sedge, Umbrella” value [8, 13] was 85. For the same compound, the “Plant response rating, Ducksalad” value [9, 18] was 0, the “Plant response rating, Ducksalad” value [9, 13] was 0 and the “Plant response rating, Barnyardgrass” value [10, 18] was 0. For the same compound, the “Plant response rating, Barnyardgrass” value [10, 13] was 30.
With `Cc1nn(-c2ccc(F)cc2)nc1Cn1cc(C(F)(F)F)nc1Cl` [Compound 35] the “Barnyardgrass plant response rating” value [1, 14] was 40, the “Barnyardgrass plant response rating” value [1, 15] was 90 and the “Plant response rating, Barnyardgrass” value [1, 16] was 60. The “Plant response rating, Barnyardgrass” value [1, 17] was 90, the “Crabgrass, Large plant response rating” value [2, 14] was 80 and the “Crabgrass, Large plant response rating” value [2, 15] was 90. For the same compound, the “Plant response rating, Crabgrass, Large” value [2, 16] was 90, the “Plant response rating, Crabgrass, Large” value [2, 17] was 100 and the “Foxtail, Giant plant response rating” value [3, 14] was 60. For the same compound, the “Foxtail, Giant plant response rating” value [3, 15] was 90, the “Plant response rating, Foxtail, Giant” value [3, 16] was 80 and the “Plant response rating, Foxtail, Giant” value [3, 17] was 100. For the same compound, the “Morningglory plant response rating” value [4, 14] was 90, the “Morningglory plant response rating” value [4, 15] was 100 and the “Plant response rating, Morningglory” value [4, 16] was 20. For the same compound, the “Plant response rating, Morningglory” value [4, 17] was 50, the “Pigweed plant response rating” value [5, 14] was 100 and the “Pigweed plant response rating” value [5, 15] was 100. The “Plant response rating, Pigweed” value [5, 16] was 90, the “Plant response rating, Pigweed” value [5, 17] was 100 and the “Velvetleaf plant response rating” value [6, 14] was 70. The “Velvetleaf plant response rating” value [6, 15] was 100, the “Plant response rating, Velvetleaf” value [6, 16] was 30 and the “Plant response rating, Velvetleaf” value [6, 17] was 50. The “Wheat plant response rating” value [7, 14] was 10, the “Wheat plant response rating” value [7, 15] was 60 and the “Plant response rating, Wheat” value [7, 16] was 0. The “Plant response rating, Wheat” value [7, 17] was 0, the “Corn plant response rating” value (corn (Zea mays); [14]) was 20 and the “Corn plant response rating” value (corn (Zea mays); [15]) was 50. For the same compound, the “Plant response rating, Corn” value (corn (Zea mays); [16]) was 10, the “Plant response rating, Corn” value (corn (Zea mays); [17]) was 30 and the “Plant response rating, Rice” value (rice (Oryza sativa); [18]) was 0. The “Plant response rating, Rice” value (rice (Oryza sativa); [19]) was 0, the “Plant response rating, Rice” value (rice (Oryza sativa); [13]) was 0 and the “Plant response rating, Rice” value (rice (Oryza sativa); Flood, 31 g ai/ha) was 0. For the same compound, the “Plant response rating, Sedge, Umbrella” value [8, 18] was 75, the “Plant response rating, Sedge, Umbrella” value [8, 19] was 80 and the “Plant response rating, Sedge, Umbrella” value [8, 13] was 80. For the same compound, the “Plant response rating, Sedge, Umbrella” value ([8]; Flood, 31 g ai/ha) was 75, the “Plant response rating, Ducksalad” value [9, 18] was 65 and the “Plant response rating, Ducksalad” value [9, 19] was 70. The “Plant response rating, Ducksalad” value [9, 13] was 75, the “Plant response rating, Ducksalad” value ([9]; Flood, 31 g ai/ha) was 40 and the “Plant response rating, Barnyardgrass” value [10, 18] was 0. The “Plant response rating, Barnyardgrass” value [10, 19] was 0, the “Plant response rating, Barnyardgrass” value [10, 13] was 30 and the “Plant response rating, Barnyardgrass” value ([10]; Flood, 31 g ai/ha) was 0.
